Test results taken from EP4480943A1, “NEW CLASS OF LIPIDS FOR DELIVERING ACTIVE INGREDIENTS INTO CELLS” (Oz Biosciences, priority 2023, dated 2024).
Blank lines part the entries; values can stand above or below the molecule they belong to.

Experiments:
F-Luc mRNA expression = experiment: In vivo transfection of F-Luc mRNA using LNPs, bioluminescence (IVIS imaging); conditions: nude mice, i.p.
From the text: Lipids I, VI and XIV have been formulated into LNPs following the molar composition depicted before (Table 1). 5-methoxyuridine-modified mRNA encoding for Firefly Luciferase (OZ Biosciences, Cat: MRNA16-1000) has been entrapped into the LNP. […] Table 3: Main physical properties of mRNA(F-Luc) LNPs based on tunable lipids I, VI, XIV, and cationic lipid DOTAP
Overall, all LNPs formulations display consistent physico-chemical properties, controlled and reproducible size, charge, polydispersity and encapsulation rate to be used in small animals. A dose equivalent to 10 µg of mRNA has been injected i.p. (intra-peritoneally) in nude mice using three different LNPs. Tunable lipids I and XIV and DOTAP-based LNPs have been selected. Bioluminescence has been monitored over time using IVIS imaging system. […] Indeed 3h post injection, luminescence could be observed in all animals at different proportions (Figure 50). Specifically, F-Luc mRNA expression was higher in mice that received LNPs based on tunable lipids, whereas expression was much lower when DOTAP is used.

[1] = Encapsulation efficiency / loaded nucleic acid by SyBr Gold fluorescence after Triton X-100 disruption; type: physicochemical
Procedure: (§1) The size and charge of the collected LNPs are determined using DLS (Malvern Instruments NanoZS) by dissolving 50 µL of the collected solution in 950 µL of MilliQ water. Then, formed LNPs are destabilized by adding 1% v/v of Triton X-100 and incubate at 30°C for 1h and vortexing. After disruption of the formulation, a 1/100 solution of SyBr™Gold in water is prepared, and 0.5µL of it added to 49.5µL of the resulting mixture that includes Triton X-100. The SyBr™Gold is also added the same way to 49.5µL of a solution that contains non-disrupted LNPs, and to 49.5µL of the mRNA mother solution. Fluorescence of each sample is then read after 30 min incubation at RT using a Victor (Perkin Elmer) fluorimeter (excitation: 495nm; emission: 537nm ;). The encapsulation efficiency (ee(%)) is easily obtained from these fluorescence measurements using the formula below: ee (%) = ((Fluo_LNP1v%triton−Fluo_LNP))/(Fluo_RNAstock solution) × 100 [formula]

[2] = Size and charge of LNPs by DLS (Malvern NanoZS); type: physicochemical
Procedure: Thin layer chromatographies (TLC) are carried out on aluminium plates covered with silica gel 60 Fasa (Merck). […] The synthesized products are purified on chromatography columns on silica. The flash chromatography separations are carried out on silica gel 60 (230-400 mesh ASTM) (Merck). Particle size and zeta potential measurements: The mean hydrodynamic particle size and charge measurements were performed using Dynamic Light Scattering (DLS) and Laser Doppler Velocimetry (LDV), respectively, using Malvern Nano ZS instrument and DTS software (Malvern Instruments, UK) in a water of Grade 2. Various amounts of cationic poloxamers were diluted in 100 µl of water and mixed with an equal volume of the same water containing DNA. The measurements were carried out in automatic mode and the results are presented as mean +/- SEM, n= 3. Each mean represents the average value of 30 measurements.
as §1

firefly luciferase = experiment: Biodistribution study of Luciferase mRNA LNPs, RT-PCR of organs; type: in vivo; conditions: nude mice, i.p., 10µg RNA dose, RT-PCR 6 hours after injection
Procedure: Biodistribution study involving tunable lipids-based LNPs (lipids I, VI, and XIV) has also been conducted in nude mice that were injected i.p. with Luciferase mRNA formulated into 3 different LNPs formulations at 10µg RNA dose to evaluate the nucleic acid delivery into various organs. The liver, lung, kidney and spleen were collected and analysed through RT-PCR 6 hours after injection. As observed previously, tunable lipids-based LNPs are appropriately efficient to allow the observation and quantitation of Luciferase protein in quantity 6 hours after i.p. injection.

ovalbumin (OVA) antigen = experiment: In vivo immunization with OVA mRNA LNPs, ELISA and Elispot; conditions: C57BL6J mice, s.c. prime boost (D0-14), 10µg mRNA
From the text: In this context, the emergence of vaccine-based LNPs represents a clear opportunity to reach pathologies impossible to fight with more classical vaccine approach. The tunable lipid presented in this document could envisioned as potent pillar for future nucleic acid-based vaccine, due to their ground-breaking features in term of efficiency and safe character. Thus, LNPs based on tunable lipids I and XIV have been formulated to encapsulate unmodified mRNA coding for the ovalbumin (OVA) antigen (OZ Biosciences, Cat: MRNA42-1000) and their physico-chemical properties determined (Table 4). Table 4: Main physical properties of mRNA(OVA) LNPs based on tunable lipids I and XIV.
C57BL6J mice received a prime boost (D0-14) immunizations of OVA antigen delivered by mRNA-based LNPs or by recombinant protein (alone or adjuvanted with aluminium-based adjuvant). To characterize the immuno-phenotyping of the mice, the sera and splenocytes were collected at different time (D0, D14, D21, D28) and analysed by ELISA and Elispot. The mice were immunized by s.c (sub-cutaneous) route with 100µL per injection at 10µg OVA subunit and 10µg mRNA doses. Results are depicted in figures 51 and 52, mRNA-OVA LNP formulations are efficient at priming a strong humoral response upon sub-cutaneous prime boost injection (D0-14). Indeed, a strong antibody response was measured after prime boost immunization. […]

[3] = mRNA(F-Luc) LNPs, total lipid 5 mM, N/P 6
[4] = mRNA(GFP) LNPs, total lipid 3.75 mM, N/P 6
[5] = NTsiRNA-Cy5 LNPs, DiO Label N, total lipid 4.74 mM, N/P 6
[6] = NTsiRNA-Cy5 LNPs, DiO Label Y, total lipid 4.74 mM, N/P 6
[7] = mRNA(OVA) LNPs, total lipid 5 mM, N/P 6
[8] = DNA pVectOZ (eGFP) LNPs, total lipid 3.91 mM, N/P 6.6
[9] = DNA pVectOZ(Ppt) LNPs, total lipid 4 mM, N/P 10
[10] = DNA pVectOZ (F-Luc) LNPs, total lipid 4.6 mM, N/P 12

Structure (SMILES): CCCCCCCC/C=C\CCCCCCCC(=O)OCC(C[N+](C)(C)C)OC(=O)CCCCCCC/C=C\CCCCCCCC (centres unmarked) [DOTAP, I ,2-dioleoy-3-tri-methylarnmonium propane, reference compound]
F-Luc mRNA expression (bioluminescence) (F-Luc mRNA expression; 10 µg of mRNA, 3h post injection): much lower | Encapsulation Efficiency [1, 3]: 91.5% | Loaded RNA [1, 3]: 183 ng/µL | PDI [2, 3]: 0.23 | Size [2, 3]: 96 nm | Zeta [2, 3]: +17 mV

Encapsulation Efficiency [1, 3]: 94% | Loaded RNA [1, 3]: 188 ng/µL | Encapsulation Efficiency [1, 4]: 84% | Loaded RNA [1, 4]: 84 ng/µL | PDI [2, 3]: 0.13 | Size [2, 3]: 115 nm | Zeta [2, 3]: -2.25 mV | PDI [2, 4]: 0.344 | Size [2, 4]: 117 nm | Zeta [2, 4]: +0.3 mV
Structure (SMILES): CCCCCCCC/C=C\CCCCCCCCNC(=O)CCC(NC(=O)CCC(=O)NCCSSCCNC(=O)CN(C)C)C(=O)NCCCCCCCC/C=C\CCCCCCCC (centres unmarked) [VI]
Luciferase gene expression in liver (firefly luciferase): rate comparable to those observed in the lungs | Luciferase gene expression in spleen (firefly luciferase): high delivery

Encapsulation Efficiency [1, 5]: >90% | Loaded siRNA [1, 5]: 0.125 ng/µL | Encapsulation Efficiency [1, 6]: >90% | Loaded siRNA [1, 6]: 0.125 ng/µL | Encapsulation Efficiency [1, 3]: 87.5% | Loaded RNA [1, 3]: 175 ng/µL | Encapsulation Efficiency [1, 4]: 91% | Loaded RNA [1, 4]: 91 ng/µL | Encapsulation Efficiency [1, 7]: 94% | Loaded RNA [1, 7]: 94 ng/µL | PDI [2, 5]: 0.222 | Size [2, 5]: 114 nm | Zeta [2, 5]: +27 mV | PDI [2, 6]: 0.198 | Size [2, 6]: 106 nm | Zeta [2, 6]: -2.46 mV | PDI [2, 3]: 0.13 | Size [2, 3]: 99 nm | Zeta [2, 3]: +4.85 mV | PDI [2, 4]: 0.186 | Size [2, 4]: 115 nm | PDI [2, 7]: 0.149 | Size [2, 7]: 131.7 nm | Zeta [2, 7]: -7.9 mV
Structure (SMILES): CCCCC/C=C\C/C=C\CCCCCCCCNC(=O)CCC(NC(=O)CCCN(C)C)C(=O)NCCCCCCCC/C=C\C/C=C\CCCCC (centres unmarked) [XIV]
time of maximum bioluminescence signal post injection (F-Luc mRNA expression; 10 µg mRNA): 3 h | immune response (initial response of IgG2c) (ovalbumin (OVA) antigen): efficient in generating an immune response | Luciferase gene expression in kidney (firefly luciferase): most efficient between the three tested formulation | Luciferase gene expression in lung (firefly luciferase): highest rate of gene expression

Encapsulation Efficiency [1, 8]: 83% | Loaded DNA [1, 8]: 0.125 ng/µL | Encapsulation Efficiency [1, 9]: 82% | Loaded DNA [1, 9]: 0.125 ng/µL | Encapsulation Efficiency [1, 3]: 97.5% | Loaded RNA [1, 3]: 195 ng/µL | Encapsulation Efficiency [1, 4]: 94.6% | Loaded RNA [1, 4]: 94.6 ng/µL | Encapsulation Efficiency [1, 7]: 98.1% | Loaded RNA [1, 7]: 98.1 ng/µL | PDI [2, 8]: 0.044 | Size [2, 8]: 158.9 nm | Zeta [2, 8]: +4.61 mV | PDI [2, 9]: 0.079 | Size [2, 9]: 173 nm | Zeta [2, 9]: +14.3 mV | PDI [2, 3]: 0.09 | Size [2, 3]: 88 nm | Zeta [2, 3]: -7.3 mV | Zeta [2, 4]: -9.3 mV | PDI [2, 7]: 0.153 | Size [2, 7]: 111.4 nm | Zeta [2, 7]: -9.01 mV
Structure (SMILES): CCCCCCCC/C=C\CCCCCCCCNC(=O)CCC(NC(=O)CN(C)C)C(=O)NCCCCCCCC/C=C\CCCCCCCC (centres unmarked) [I]
time of maximum bioluminescence signal post injection (F-Luc mRNA expression; 10 µg mRNA): 6 h | overall luminescence signal (kinetics) (F-Luc mRNA expression; 10 µg mRNA, over 25h): highest overall luminescence signal | immune response (initial response of IgG2c) (ovalbumin (OVA) antigen): efficient in generating an immune response | Luciferase gene expression in lung (firefly luciferase): high protein expression rate | Luciferase gene expression in spleen (firefly luciferase): high protein expression rate

Encapsulation Efficiency [1, 4]: 89% | Loaded RNA [1, 4]: 89 ng/µL
Structure (SMILES): CCCCCCC/C=C\CCCCCCCCNC(=O)CCC(NC(=O)OCCN(CC)CC)C(=O)NCCCCCCCC/C=C\CCCCCCCC (centres unmarked) [V]

Encapsulation Efficiency [1, 4]: 78.3% | Loaded RNA [1, 4]: 78.3 ng/µL
Structure (SMILES): CCCCCCCC/C=C\CCCCCCCC(=O)NCCCC(NC(=O)CCCCCCC/C=C\CCCCCCCC)C(=O)NCCCn1ccnc1 (centres unmarked) [XV]

Encapsulation Efficiency [1, 4]: 83.6% | Loaded RNA [1, 4]: 83.6 ng/µL | PDI [2, 4]: 0.109 | Size [2, 4]: 141 nm | Zeta [2, 4]: +11.6 mV
Structure (SMILES): CCCCC/C=C\C/C=C\CCCCCCCCOC(=O)CCC(NC(=O)CN(C)C)C(=O)OCCCCCCCC/C=C\C/C=C\CCCCC (centres unmarked) [X]

Encapsulation Efficiency [1, 4]: 98.8% | Loaded RNA [1, 4]: 98.8 ng/µL | PDI [2, 4]: 0.2 | Size [2, 4]: 113 nm | Zeta [2, 4]: 5.57 mV
Structure (SMILES): CCCCCCC/C=C\CCCCCCCCNC(=O)CCC(NC(=O)CCCN(C)C)C(=O)NCCCCCCCC/C=C\CCCCCCCC (centres unmarked) [II]

Encapsulation Efficiency [1, 10]: 92% | Loaded DNA [1, 10]: 94 ng/µL | Encapsulation Efficiency [1, 5]: >90% | Loaded siRNA [1, 5]: 0.125 ng/µL | Encapsulation Efficiency [1, 6]: >90% | Loaded siRNA [1, 6]: 0.125 ng/µL | PDI [2, 10]: 0.079 | Size [2, 10]: 103 nm | Zeta [2, 10]: +16.5 mV | PDI [2, 5]: 0.091 | Size [2, 5]: 116 nm | Zeta [2, 5]: +18.2 mV | PDI [2, 6]: 0.073 | Size [2, 6]: 99 nm | Zeta [2, 6]: +19.9 mV | polydispersity index ([2]; NTsiRNA-Cy5 LNPs, with or without DiO): below 0.1
Structure (SMILES): CCCCC/C=C\C/C=C\CCCCCCCCOC(=O)CCC(NC(=O)CCCN(C)C)C(=O)OCCCCCCCC/C=C\C/C=C\CCCCC (centres unmarked) [XI]
